From PubChem BioAssay (NCI) come the findings set out here.

Values joined by “and” are separate entries in the source; they are usually repeats but may differ in a detail not shown here. Equal values may be shown once.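 Cells were grown in 96-well plates and exposed to each compound for 48 hours at five concentrations; endpoints were interpolated linearly between bracketing concentrations, or set to the highest concentration if not reached. Abbreviation: GI50, concentration required for 50% inhibition of growth. Definition used: TGI = concentration required for complete inhibition of growth.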 A value given as a limit tells only on which side of the number the result lay.

The term GI50 denotes the concentration that inhibits growth by half. In general, TGI refers to the concentration giving total growth inhibition.

Some test systems named below: BT-549 breast; COLO 205 colon; MDA-MB-435; NCI-H460 lung; OVCAR-4 ovarian; SN12C renal; TK-10 renal; UO-31 renal.
Common to all, as to test: DTP human tumour cell line panel, 48 h

In the case of `C=C1C(=O)O[C@H]2[C@H]1CC/C(COC(=O)NCc1ccc(Cn3c(=O)sn(CCCI)c3=O)cc1)=C\CC[C@@]1(C)O[C@@H]21`, the GI50 is 1.37 µM in the experiment on BT-549 breast; 1.95 µM in the experiment with COLO 205 colon; 1.68 µM in the experiment on MDA-MB-435; 3.2 µM in the experiment on NCI-H460 lung; 1.46 µM in the experiment on OVCAR-4 ovarian; 1.57 µM with SN12C renal. Further, the GI50 with TK-10 renal is 1.71 µM; in the experiment with UO-31 renal, 1.52 µM. Also, the TGI in the experiment with BT-549 breast amounted to 2.84 µM; in the experiment on COLO 205 colon, 3.66 µM; in the experiment with MDA-MB-435, 3.3 µM; with NCI-H460 lung it was 10.3 µM; in the experiment with OVCAR-4 ovarian, 3.11 µM; with SN12C renal, 3.62 µM. The values for the TGI with TK-10 renal and in the experiment with UO-31 renal were 3.35 µM and 2.94 µM, respectively.
Regarding `Nc1nc(N)c2nc(CNc3ccc(C(=O)NC(CCC(=O)O)C(=O)O)cc3)cnc2n1` (configuration not stated), the concentration for 50% growth inhibition (GI50) is 0.399 µM and 0.213 µM in the experiment with BT-549 breast; under 0.01 µM with MDA-MB-435; under 0.01 µM with NCI-H460 lung; under 0.01 µM with SN12C renal; 0.0736 µM with TK-10 renal; 0.0262 µM and < 0.01 µM in the experiment with UO-31 renal. For the same compound, the TGI with BT-549 breast, with COLO 205 colon, in the experiment with MDA-MB-435, in the experiment with NCI-H460 lung, in the experiment on OVCAR-4 ovarian and in the experiment with SN12C renal was over 100 µM throughout. Further, the TGI in the experiment on TK-10 renal and with UO-31 renal was over 100 µM throughout.
In the case of `CN1CC[C@H](N(C)C(=O)N2CC(c3cc(F)ccc3F)=C[C@@]2(CO)c2ccccc2)[C@H](F)C1`, the GI50 in the experiment on BT-549 breast is 0.0421 µM; with MDA-MB-435, 0.00258 µM; in the experiment with NCI-H460 lung it was 0.0308 µM; in the experiment with OVCAR-4 ovarian it was 20.5 µM; with SN12C renal, 0.0631 µM; with TK-10 renal, 27.7 µM. For the same compound, the GI50 in the experiment with UO-31 renal was 7.74 µM. Also, the TGI is 37.7 µM in the experiment on BT-549 breast; 3.77 µM in the experiment on COLO 205 colon; 0.00772 µM in the experiment on MDA-MB-435; over 100 µM in the experiment on NCI-H460 lung; over 100 µM in the experiment on OVCAR-4 ovarian; over 100 µM in the experiment on SN12C renal. Further, the total growth inhibition concentration (TGI) in the experiment on TK-10 renal and in the experiment with UO-31 renal was over 100 µM throughout.
As for `OC1(c2ccccc2)c2ccccc2N(c2ccccc2)c2ccc(Cl)cc21` (configuration not stated), the GI50 with BT-549 breast is 0.367 µM; in the experiment on COLO 205 colon, 0.147 µM; in the experiment on MDA-MB-435 it was 0.213 µM; in the experiment with NCI-H460 lung, 0.246 µM; in the experiment with OVCAR-4 ovarian, 0.313 µM; with SN12C renal, 0.224 µM. Further, the GI50 is 0.3 µM in the experiment with TK-10 renal and 0.38 µM in the experiment with UO-31 renal. Also, the TGI in the experiment with BT-549 breast turned out to be 1.29 µM; in the experiment on COLO 205 colon, 0.338 µM; in the experiment on MDA-MB-435, 0.631 µM; with NCI-H460 lung, 0.568 µM; in the experiment on OVCAR-4 ovarian, 1.39 µM; in the experiment on SN12C renal, 0.712 µM. The TGI in the experiment with TK-10 renal is 1.01 µM; in the experiment on UO-31 renal, 1.51 µM.
With `Cc1ccc(CNc2ccc(Cl)cc2NCc2ccc(C)c(O)c2)cc1O`, the GI50 in the experiment on BT-549 breast was 6.96 µM; with COLO 205 colon, 8.01 µM; in the experiment on MDA-MB-435, 6.7 µM; in the experiment on NCI-H460 lung, 8 µM; in the experiment on OVCAR-4 ovarian, 6.63 µM; in the experiment on SN12C renal, 6.95 µM. For the same compound, the GI50 with TK-10 renal was 8.4 µM; in the experiment with UO-31 renal, 5.42 µM. The TGI in the experiment on BT-549 breast was 14.1 µM; in the experiment on COLO 205 colon, 15.9 µM; in the experiment on MDA-MB-435, 13.1 µM; in the experiment with NCI-H460 lung, 15.9 µM; with OVCAR-4 ovarian it was 14.4 µM; in the experiment on SN12C renal, 14 µM. The values for the TGI in the experiment on TK-10 renal and with UO-31 renal were 15.5 µM and 11.7 µM, respectively.
Turning to `CC/C(=C\c1ccc(N(C)C)cc1)c1ccncc1`, the GI50 with BT-549 breast was 4.38 µM; with COLO 205 colon, 3.94 µM; with MDA-MB-435, 1.68 µM; with NCI-H460 lung, 3.79 µM; in the experiment with OVCAR-4 ovarian, 8.67 µM; with SN12C renal, 5.96 µM. For the same compound, the GI50 in the experiment on TK-10 renal is 12.9 µM; in the experiment on UO-31 renal, 6.57 µM. Further, the total growth inhibition concentration (TGI) in the experiment on BT-549 breast is 23.5 µM; with COLO 205 colon, 21.1 µM; in the experiment with MDA-MB-435, 7.51 µM; in the experiment with NCI-H460 lung it was over 100 µM; in the experiment with OVCAR-4 ovarian it was over 100 µM; in the experiment with SN12C renal it was over 100 µM. Moreover, the TGI with TK-10 renal and with UO-31 renal was over 100 µM in each case.
Take `CC1SC(c2ccc(OCc3ccccc3)cc2)N(NC(=O)C(O)(c2ccccc2)c2ccccc2)C1=O` (configuration not stated): the GI50 in the experiment with BT-549 breast was 5.45 µM; with COLO 205 colon it was 1.98 µM; with MDA-MB-435, 3.52 µM; with NCI-H460 lung it was 3.53 µM; in the experiment with OVCAR-4 ovarian it was 5.13 µM; in the experiment with SN12C renal, 3.95 µM. Further, the GI50 in the experiment on TK-10 renal was 2.57 µM; with UO-31 renal, 3.74 µM. The TGI in the experiment with BT-549 breast was found to be 22.4 µM; in the experiment with COLO 205 colon, 4.26 µM; with MDA-MB-435 it was 13.8 µM; with NCI-H460 lung, 12.9 µM; in the experiment with OVCAR-4 ovarian it was 36 µM; with SN12C renal, 13.8 µM. For the same compound, the TGI in the experiment on TK-10 renal worked out at 14.3 µM; in the experiment with UO-31 renal, 21.3 µM.
In the case of `COc1ccc(-c2cc(-c3ccc(Cl)cc3)c(C#N)c(=O)n2CCCCCC(=O)Nc2ccccc2N)cc1`, the GI50 is 4.49 µM in the experiment on BT-549 breast; 3.15 µM in the experiment with COLO 205 colon; 3.69 µM in the experiment with MDA-MB-435; 3.42 µM in the experiment on NCI-H460 lung; 6.48 µM with OVCAR-4 ovarian; 7.66 µM in the experiment on SN12C renal. The GI50 was 28.5 µM in the experiment on TK-10 renal and 3.96 µM with UO-31 renal. The TGI in the experiment on BT-549 breast is 43.7 µM; in the experiment with COLO 205 colon, 33.2 µM; in the experiment with MDA-MB-435 it was 18.7 µM; in the experiment on NCI-H460 lung, 27.2 µM; in the experiment on OVCAR-4 ovarian, over 100 µM; with SN12C renal, over 100 µM. The TGI with TK-10 renal and in the experiment with UO-31 renal was over 100 µM in each case.
`O=C(CNC(=O)c1cccc2ccccc12)Nc1ccccc1Oc1ccc(O)cc1`: the GI50 with BT-549 breast is 1.63 µM; in the experiment on COLO 205 colon, 0.796 µM; in the experiment on MDA-MB-435, 0.161 µM; with NCI-H460 lung it was 0.969 µM; in the experiment with OVCAR-4 ovarian, 2.8 µM; in the experiment with SN12C renal, 2.19 µM. Besides, the GI50 was 16.9 µM with TK-10 renal and 1.78 µM in the experiment with UO-31 renal. Moreover, the TGI is over 25 µM in the experiment with BT-549 breast; 3.56 µM in the experiment with COLO 205 colon; 0.687 µM in the experiment with MDA-MB-435; over 25 µM in the experiment with NCI-H460 lung; over 25 µM in the experiment with OVCAR-4 ovarian; over 25 µM in the experiment with SN12C renal. The TGI in the experiment with TK-10 renal and with UO-31 renal was over 25 µM each time.
On to `CC(=O)O[C@@H]1[C@H]2O[C@H]2[C@H]2O[C@@]2(COC(=O)c2ccccc2)[C@H]1OC(C)=O`, for which the TGI with BT-549 breast, with COLO 205 colon, in the experiment with MDA-MB-435, in the experiment on NCI-H460 lung, in the experiment on OVCAR-4 ovarian and in the experiment on SN12C renal was over 100 µM in each case. Besides, the TGI in the experiment with TK-10 renal and with UO-31 renal was over 100 µM in each case.
Consider `O=C(N=Nc1c(O)[nH]c2c(Cl)cc(Cl)cc12)C(=O)Nc1cccc(C(F)(F)F)c1`, for which the TGI with BT-549 breast, with COLO 205 colon, in the experiment on MDA-MB-435, with NCI-H460 lung, in the experiment on OVCAR-4 ovarian and in the experiment on SN12C renal was over 100 µM each time. For the same compound, the TGI in the experiment with TK-10 renal and in the experiment with UO-31 renal was over 100 µM in each case.
Regarding `CCN(CC)CCN1C(=O)c2cccc3cc(N)cc(c23)C1=O`, the TGI turned out to be 40.4 µM in the experiment with BT-549 breast; 16.8 µM in the experiment on COLO 205 colon; 22.2 µM with MDA-MB-435; 18.2 µM in the experiment on NCI-H460 lung; 48.3 µM with OVCAR-4 ovarian; 27.1 µM in the experiment on SN12C renal. For the same compound, the TGI was over 100 µM in the experiment with TK-10 renal and 66.8 µM in the experiment on UO-31 renal.
On to `COc1cc(F)c(F)c(F)c1C(=O)c1cnc(NC2CCN(S(C)(=O)=O)CC2)nc1N`, for which the GI50 with BT-549 breast was 3.23 µM; with COLO 205 colon, 0.783 µM; in the experiment with MDA-MB-435, 0.782 µM; in the experiment on NCI-H460 lung, 0.428 µM; with OVCAR-4 ovarian, 3.29 µM; in the experiment with SN12C renal, 1.96 µM. For the same compound, the GI50 with TK-10 renal and with UO-31 renal was 1.6 µM in each case. Also, the TGI in the experiment with BT-549 breast is 8.35 µM; in the experiment on COLO 205 colon, 4.49 µM; in the experiment with MDA-MB-435, 7.18 µM; with NCI-H460 lung, over 25 µM; in the experiment on OVCAR-4 ovarian, over 25 µM; in the experiment on SN12C renal it was over 25 µM. The TGI in the experiment on TK-10 renal turned out to be 24.7 µM; in the experiment with UO-31 renal, 13.4 µM.
In the case of `CCCCCCCCCCCCNC(=O)N[C@H](C(=O)N[C@H]1/C=C/OCCNC(=O)/C=C/[C@H](C(C)C)NC1=O)C(C)C`, the GI50 with BT-549 breast was 2.19 µM; in the experiment with COLO 205 colon, 20 µM; with MDA-MB-435 it was 1.48 µM; with NCI-H460 lung, 6.16 µM; in the experiment on OVCAR-4 ovarian, 3.61 µM; with SN12C renal it was 23.6 µM. Further, the GI50 is 10.3 µM in the experiment with TK-10 renal and over 100 µM with UO-31 renal. For the same compound, the TGI was 33.6 µM in the experiment with BT-549 breast; over 57.4 µM with COLO 205 colon; over 100 µM in the experiment on MDA-MB-435; 61.3 µM with NCI-H460 lung; over 100 µM in the experiment with OVCAR-4 ovarian; over 100 µM with SN12C renal. The TGI is over 76.4 µM in the experiment on TK-10 renal and over 100 µM in the experiment on UO-31 renal.
